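Assay format: 96-well plates, 48-hour exposure. Here, GI50 denotes the concentration required for 50% inhibition of growth. TGI denotes the concentration required for complete inhibition of growth.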
Key:
Assay in all cases: growth of human tumour cells (NCI), 48 h; in the data active = GI50 below about 0.43 µM; inactive = the rest
A549 NSCLC = test system: A549 NSCLC
K-562 leukemia = test system: K-562 leukemia
LOX IMVI melanoma = test system: LOX IMVI melanoma
MDA-MB-231 breast = test system: MDA-MB-231 breast
SNB-19 CNS = test system: SNB-19 CNS
SF-268 CNS = test system: SF-268 CNS
786-0 renal = test system: 786-0 renal
EKVX NSCLC = test system: EKVX NSCLC
A498 renal = test system: A498 renal
HT29 colon = test system: HT29 colon
OVCAR-8 ovarian = test system: OVCAR-8 ovarian
NCI/ADR-RES ovarian = test system: NCI/ADR-RES ovarian
MCF7 breast = test system: MCF7 breast
SK-MEL-28 melanoma = test system: SK-MEL-28 melanoma
MOLT-4 leukemia = test system: MOLT-4 leukemia
OVCAR-5 ovarian = test system: OVCAR-5 ovarian
NCI-H226 lung = test system: NCI-H226 lung
SW-620 colon = test system: SW-620 colon
HL-60(TB) leukemia = test system: HL-60(TB) leukemia
SK-MEL-2 melanoma = test system: SK-MEL-2 melanoma
TK-10 renal = test system: TK-10 renal
OVCAR-4 ovarian = test system: OVCAR-4 ovarian
HOP-92 NSCLC = test system: HOP-92 NSCLC
HCC-2998 colon = test system: HCC-2998 colon
SK-OV-3 ovarian = test system: SK-OV-3 ovarian
HCT-15 colon = test system: HCT-15 colon
SF-295 CNS = test system: SF-295 CNS
U251 CNS = test system: U251 CNS
CAKI-1 renal = test system: CAKI-1 renal
HOP-62 NSCLC = test system: HOP-62 NSCLC
COLO 205 colon = test system: COLO 205 colon
SNB-75 CNS = test system: SNB-75 CNS
NCI-H460 lung = test system: NCI-H460 lung
HCT-116 colon = test system: HCT-116 colon
MALME-3M melanoma = test system: MALME-3M melanoma
UO-31 renal = test system: UO-31 renal
SK-MEL-5 melanoma = test system: SK-MEL-5 melanoma
RPMI-8226 leukemia = test system: RPMI-8226 leukemia
KM12 colon = test system: KM12 colon
CCRF-CEM leukemia = test system: CCRF-CEM leukemia
NCI-H522 lung = test system: NCI-H522 lung
NCI-H23 lung = test system: NCI-H23 lung
MDA-MB-435 = test system: MDA-MB-435
SR leukemia = test system: SR leukemia
T-47D breast = test system: T-47D breast
DU-145 prostate = test system: DU-145 prostate
ACHN renal = test system: ACHN renal
RXF 393 renal = test system: RXF 393 renal
UACC-62 melanoma = test system: UACC-62 melanoma
SN12C renal = test system: SN12C renal
PC-3 prostate = test system: PC-3 prostate
HS 578T breast = test system: HS 578T breast
UACC-257 melanoma = test system: UACC-257 melanoma
SF-539 CNS = test system: SF-539 CNS
OVCAR-3 ovarian = test system: OVCAR-3 ovarian
M14 melanoma = test system: M14 melanoma
BT-549 breast = test system: BT-549 breast
IGROV1 ovarian = test system: IGROV1 ovarian

Cc1cc(I)cc(CN(C)CCCN2CCN(C)CC2)c1O
> 57.9 µM: TGI (HL-60(TB) leukemia)
41.2 µM: TGI (HT29 colon)
> 81.2 µM: TGI (RXF 393 renal)
36.1 µM: TGI (LOX IMVI melanoma)
inactive: GI50 (A549 NSCLC) 36 µM | GI50 (K-562 leukemia) 14.6 µM | GI50 (LOX IMVI melanoma) 17.2 µM | GI50 (MDA-MB-231 breast) 24.1 µM | GI50 (SNB-19 CNS) > 100 µM | GI50 (SF-268 CNS) 35 µM | GI50 (786-0 renal) 18.6 µM | GI50 (EKVX NSCLC) 79.3 µM | GI50 (A498 renal) 23.6 µM | GI50 (HT29 colon) 13.7 µM | GI50 (OVCAR-8 ovarian) 80.8 µM | GI50 (NCI/ADR-RES ovarian) 77.8 µM | GI50 (MCF7 breast) 26 µM | GI50 (SK-MEL-28 melanoma) 17.2 µM | GI50 (MOLT-4 leukemia) 21.7 µM | GI50 (OVCAR-5 ovarian) 78.7 µM | GI50 (NCI-H226 lung) 56.9 µM | GI50 (SW-620 colon) 24.2 µM | GI50 (HL-60(TB) leukemia) 27.1 µM | GI50 (SK-MEL-2 melanoma) 22.3 µM | GI50 (TK-10 renal) 61.7 µM | GI50 (OVCAR-4 ovarian) > 73.1 µM | GI50 (HOP-92 NSCLC) 37.9 µM | GI50 (HCC-2998 colon) 24.7 µM | GI50 (SK-OV-3 ovarian) 65.7 µM | GI50 (HCT-15 colon) 21.1 µM | GI50 (SF-295 CNS) 18.5 µM | GI50 (U251 CNS) 30.9 µM | GI50 (CAKI-1 renal) 20.3 µM | GI50 (HOP-62 NSCLC) 17 µM | GI50 (COLO 205 colon) 19.3 µM | GI50 (SNB-75 CNS) 31.5 µM | GI50 (NCI-H460 lung) 32.8 µM | GI50 (HCT-116 colon) 12.6 µM | GI50 (MALME-3M melanoma) 19.9 µM | GI50 (UO-31 renal) 37.5 µM | GI50 (SK-MEL-5 melanoma) 16.1 µM | GI50 (RPMI-8226 leukemia) 16.1 µM | GI50 (KM12 colon) 35.6 µM | GI50 (CCRF-CEM leukemia) 45.7 µM | GI50 (NCI-H522 lung) 46.4 µM | GI50 (NCI-H23 lung) 82.4 µM | GI50 (MDA-MB-435) 14.4 µM | GI50 (SR leukemia) 20.1 µM | GI50 (T-47D breast) 28.7 µM | GI50 (DU-145 prostate) 75 µM | GI50 (ACHN renal) 81.6 µM | GI50 (RXF 393 renal) 21.7 µM | GI50 (UACC-62 melanoma) 6.89 µM | GI50 (SN12C renal) > 94.8 µM | GI50 (PC-3 prostate) 52.2 µM | GI50 (HS 578T breast) 23.6 µM | GI50 (UACC-257 melanoma) 35 µM | GI50 (SF-539 CNS) 16 µM | GI50 (OVCAR-3 ovarian) > 64.5 µM | GI50 (M14 melanoma) 4.67 µM | GI50 (BT-549 breast) 21 µM | GI50 (IGROV1 ovarian) 40.5 µM
> 73.9 µM: TGI (BT-549 breast)
42 µM: TGI (COLO 205 colon)
> 68.1 µM: TGI (HS 578T breast)
> 100 µM: TGI (A549 NSCLC) | TGI (SNB-19 CNS) | TGI (SF-268 CNS) | TGI (EKVX NSCLC) | TGI (OVCAR-8 ovarian) | TGI (NCI/ADR-RES ovarian) | TGI (OVCAR-5 ovarian) | TGI (NCI-H226 lung) | TGI (TK-10 renal) | TGI (OVCAR-4 ovarian) | TGI (HOP-92 NSCLC) | TGI (SK-OV-3 ovarian) | TGI (U251 CNS) | TGI (SNB-75 CNS) | TGI (NCI-H460 lung) | TGI (UO-31 renal) | TGI (KM12 colon) | TGI (CCRF-CEM leukemia) | TGI (NCI-H23 lung) | TGI (DU-145 prostate) | TGI (ACHN renal) | TGI (SN12C renal) | TGI (PC-3 prostate) | TGI (OVCAR-3 ovarian) | TGI (IGROV1 ovarian)
33 µM: TGI (SK-MEL-28 melanoma) | TGI (SF-539 CNS)
91.1 µM: TGI (T-47D breast)
54.2 µM: TGI (A498 renal)
31.4 µM: TGI (MDA-MB-435)
82.7 µM: TGI (MCF7 breast)
97.1 µM: TGI (NCI-H522 lung)
46.1 µM: TGI (SK-MEL-2 melanoma)
39.6 µM: TGI (SF-295 CNS)
59 µM: TGI (HCT-15 colon)
> 55.1 µM: TGI (SR leukemia)
> 57.5 µM: TGI (UACC-257 melanoma)
19.3 µM: TGI (UACC-62 melanoma)
> 54.2 µM: TGI (786-0 renal)
> 67.7 µM: TGI (SW-620 colon)
36.3 µM: TGI (HOP-62 NSCLC)
29.9 µM: TGI (SK-MEL-5 melanoma)
47.3 µM: TGI (CAKI-1 renal)
45.2 µM: TGI (RPMI-8226 leukemia)
> 86.1 µM: TGI (HCT-116 colon)
36.2 µM: TGI (MALME-3M melanoma)
40.1 µM: TGI (K-562 leukemia)
> 68.3 µM: TGI (MDA-MB-231 breast)
56.8 µM: TGI (HCC-2998 colon)
> 63.8 µM: TGI (MOLT-4 leukemia)
23.9 µM: TGI (M14 melanoma)
